One experiment deals with Salmonella typhi. Put plainly: MIC per disc against Salmonella typhi by disc diffusion method. The format is functional, Salmonella enterica subsp. enterica serovar Typhi. On the technique in general: Agar diffusion results depend on both activity and mobility in agar.
Another experiment has as its system Staphylococcus aureus. Put plainly: MIC per disc in Staphylococcus aureus by disc diffusion method. The format is functional.
For another experiment, the system named is Pseudomonas aeruginosa. Put plainly: MIC per disc against Pseudomonas aeruginosa by disc diffusion method. Format: functional.
For experiment [1], the system named is Streptomyces thermovulgaris. Put plainly: MIC per disc against Streptomyces thermonitrificans by disc diffusion method. The format is functional.
A further experiment concerns Escherichia coli. In words: MIC per disc against Escherichia coli by disc diffusion method. Format: functional.
Another experiment has as its system RBCs. Put plainly: Cytotoxicity against erythrocytes by haemolytic assay at upto 500 ug/ml. Format: functional, Erythrocyte.
[2] abbreviates: Salmonella enterica subsp. enterica serovar Typhi.

Calls of active or inactive are those of the source. The rule behind the calls is not given here.

Take `C[C@H]1c2cccc(O)c2C(=O)C2=C(O)[C@]3(O)C(=O)C(C(N)=O)=C(O)[C@@H](N(C)C)[C@@H]3[C@@H](O)[C@@H]21.Cl` [DOXYCYCLINE HYDROCHLORIDE]: the MIC against Salmonella typhi was 1 µg; with Staphylococcus aureus it was 1 µg; against Pseudomonas aeruginosa, 1 µg; in experiment [1], 1 µg; with Escherichia coli it was 2 µg.
GENTAMICIN: the MIC against Salmonella typhi (setting [2]) was 1 µg; in the experiment on Staphylococcus aureus it was 1 µg; against Pseudomonas aeruginosa, 0.5 µg; in experiment [1], 1 µg; against Escherichia coli, 1 µg.
In turn, `Cc1c2n(c3ccccc13)CCNC2c1ccc(F)cc1` (stereo not drawn) showed an Activity in the experiment with RBCs of 5%. Moreover, the MIC worked out at 30 µg against Salmonella typhi; 30 µg against Staphylococcus aureus; 30 µg with Pseudomonas aeruginosa; 7.5 µg in experiment [1]; 15 µg in the experiment with Escherichia coli.
Consider `Cc1ccc(C2NCCn3c2c(C)c2ccccc23)cc1` (stereo not drawn), for which the Activity with RBCs is listed as 5%. The MIC with Salmonella typhi stood at 15 µg; against Staphylococcus aureus it was 30 µg; against Pseudomonas aeruginosa, 60 µg; in experiment [1] it was 30 µg; in the experiment with Escherichia coli it was 15 µg.
For `Cc1c2n(c3ccccc13)CCN(CC#N)C2`, the MIC in the experiment on Salmonella typhi was found to be 30 µg; with Staphylococcus aureus, 15 µg; against Pseudomonas aeruginosa, 60 µg; in experiment [1], 30 µg. Also, in the experiment on Escherichia coli, the MIC result is “inactive”.
Consider `Cc1cn2c(cc3ccccc32)c(C)n1`, for which the MIC (in the experiment with Salmonella typhi; with Staphylococcus aureus; against Pseudomonas aeruginosa; in experiment [1]; in the experiment on Escherichia coli) was 60 µg in each case.
Regarding `Cc1ccc(CN2CCn3c(c(C)c4ccccc43)C2)cc1`, the MIC came to 30 µg against Salmonella typhi, 15 µg against Staphylococcus aureus, 60 µg in the experiment with Pseudomonas aeruginosa and 60 µg in experiment [1]. Further, the MIC entry with Escherichia coli is “inactive”.
Take `Cc1c2n(c3ccccc13)CCNC2c1cccs1` (stereo not drawn): the MIC was 30 µg against Salmonella typhi and 60 µg in the experiment on Staphylococcus aureus. Moreover, the MIC entry (in the experiment with Pseudomonas aeruginosa; in experiment [1]; with Escherichia coli) was “inactive” each time.
On to `Cc1c2n(c3ccccc13)CCNC2c1ccccn1` (stereo not drawn), for which the MIC entry (in the experiment with Salmonella typhi (setting [2]); in the experiment with Pseudomonas aeruginosa; in experiment [1]; in the experiment with Escherichia coli) was “inactive” throughout. Also, in the experiment with Staphylococcus aureus, the MIC is 3.75 µg.
Turning to `COc1cccc(C2NCCn3c2c(C)c2ccccc23)c1` (stereo not drawn), the MIC against Salmonella typhi is 30 µg; in the experiment on Staphylococcus aureus, 60 µg; in experiment [1] it was 15 µg; in the experiment on Escherichia coli it was 30 µg. Besides, the MIC entry in the experiment with Pseudomonas aeruginosa was “inactive”.
For `Cc1c2n(c3ccccc13)CCN(Cc1ccccc1)C2`, the MIC against Salmonella typhi turned out to be 60 µg; with Staphylococcus aureus it was 15 µg; in the experiment on Pseudomonas aeruginosa, 60 µg; in experiment [1] it was 60 µg. Besides, the MIC entry in the experiment on Escherichia coli was “inactive”.
On to `Cc1c2n(c3ccccc13)CCNC2c1ccc([N+](=O)[O-])cc1` (stereo not drawn), for which the Activity in the experiment on RBCs is 5%. The MIC stood at 30 µg against Salmonella typhi; 30 µg in the experiment on Staphylococcus aureus; 30 µg in the experiment with Pseudomonas aeruginosa; 15 µg in experiment [1]; 30 µg with Escherichia coli.
As for `Cc1c2n(c3ccccc13)CCNC2c1ccc(Br)cc1` (stereo not drawn), the MIC in the experiment on Salmonella typhi turned out to be 60 µg; against Staphylococcus aureus, 15 µg; with Pseudomonas aeruginosa it was 60 µg; in experiment [1], 15 µg. Also, in the experiment on Escherichia coli, the MIC entry is “inactive”.
Turning to `Cc1c2n(c3ccccc13)CCNC2c1ccccc1` (stereo not drawn), the MIC entry (in the experiment on Salmonella typhi (setting [2]); with Staphylococcus aureus; in experiment [1]; in the experiment on Escherichia coli) was “inactive” in each case. In the experiment on Pseudomonas aeruginosa, this compound had an MIC of 3.75 µg.
On to `Cc1c2n(c3ccccc13)CCNC2c1cccc(Cl)c1` (stereo not drawn), for which the MIC result in the experiment with Salmonella typhi (setting [2]), with Staphylococcus aureus and with Escherichia coli was “inactive” in each case. Besides, the MIC against Pseudomonas aeruginosa is 15 µg; in experiment [1] it was 3.75 µg.
For the compound `Cc1cn2c(cc3ccccc32)c(-c2ccccc2)n1`, the MIC (against Salmonella typhi; in the experiment with Staphylococcus aureus; against Pseudomonas aeruginosa; in experiment [1]; against Escherichia coli) was 60 µg each time.
With `Cc1c2n(c3ccccc13)CCN(C)C2`, the MIC (against Salmonella typhi; against Staphylococcus aureus; in the experiment on Pseudomonas aeruginosa; in experiment [1]) was 30 µg in each case. For the same compound, the MIC result in the experiment on Escherichia coli is “inactive”.
Take `CCOP(=O)(CN1CCn2c(c(C)c3ccccc32)C1)OCC`: the MIC entry in the experiment with Salmonella typhi (setting [2]), with Staphylococcus aureus and in the experiment on Escherichia coli was “inactive” throughout. Moreover, the MIC (with Pseudomonas aeruginosa; in experiment [1]) was 60 µg throughout.
`Cc1c2n(c3ccccc13)CCN(Cn1nnc3ccccc31)C2`: the MIC was 60 µg in the experiment with Salmonella typhi and 30 µg in the experiment with Staphylococcus aureus. The MIC result (with Pseudomonas aeruginosa; in experiment [1]; in the experiment on Escherichia coli) was “inactive” in each case.

The record behind these values is ChEMBL document CHEMBL1147777, “Synthesis and antibacterial activity of substituted 1,2,3,4-tetrahydropyrazino [1,2-a] indoles” (2006).
